The text below walks through data of patent US20220071952A1, “METHODS OF TREATING AND PREVENTING HEPATOTOXICITY” (Natreon, Inc., priority 2020, published 2022).

In the data set the test system is alcohol-induced hepatotoxicity in mice. Nature of the data set: Alcohol (ethanol)-induced hepatotoxicity in mice, biochemical and physical parameters (Example III). The note with it: for hepatoprotective activity against alcohol-induced hepatotoxicity / effect on alcohol-induced increased plasma ACP / effect on alcohol-induced increased plasma ALT / effect on alcohol-induced increased plasma AST / effect on plasma ALP level compared with ALC group: 10 mg/kg p.o.; for hepatoprotective activity against alcohol-induced hepatotoxicity / Relative organ weight (w.r.t body weight) Kidney / Relative organ weight (w.r.t body weight) Liver / ACP / ALP / ALT(SGPT) / AST(SGOT) / Total Protein: 15 days; for Relative organ weight (w.r.t body weight) Kidney / Relative organ weight (w.r.t body weight) Liver / ACP / ALP / ALT(SGPT) / AST(SGOT) / Total Protein: 10 mg/kg p.o. + alcohol 5 g/kg p.o. twice daily, mean ± SD; for ACP / ALP / ALT(SGPT) / AST(SGOT) / Total Protein: plasma. The data set is classed as in vivo, Swiss Albino mice. As to the method:
Swiss Albino male and female mice weighing approximately 30±5 g, 2 month old mice were obtained from National Research Institute of Ayurveda for Drug Development (Govt. of India), Kolkata, and were housed in polypropylene cages at 22±3° C., relative air humidity of 45 to 55%, with 12.00 hr light & dark cycle (lighting on from 6:00 AM to 6:00 PM). Mice were provided a standard pellet chow diet (carbohydrate 65.5%, protein 17.6%, fat 6.6%) and distilled water ad libitum. The mice were acclimatized for one week in the laboratory conditions, before being used in the experiment. All experiments were conducted between 10.00 hr and 14.00 hr. Principles of laboratory animals care (NIH publication no. 85-23, revised 1985) were followed.
In the present study simultaneous administration of alcohol (ethanol) and treatment with 3-OH-DBP and 3,8-(OH)2-DBP was done.
Vehicle control animals (“Con Veh”) were administered 0.3% CMC orally for 15 days.
Animals receiving ethanol (“Alc+0.3 CMC”, “3-OH-DBP+Alc”, “3,8-(OH)2-DBP+Alc”) were administered ethanol in 0.3% CMC orally as discussed above.
Results were expressed in terms of mean±SD (n=8). The data were subjected to one way ANOVA followed by Tukey's test using GraphPad Prism 4.0 software to establish statistical significance (*p<0.05, **p<0.01, ***p<0.001 vs. vehicle control; # p<0.05, ## p<0.01, ### p<0.001 vs. animals administered ethanol only).

`O=c1oc2cc(O)ccc2c2ccccc12` [3-OH-DBP, 3-hydroxy-dibenzo-alpha-pyrone]: the “hepatoprotective activity against alcohol-induced hepatotoxicity” value is “significant hepatoprotective activity”. Further, under “female mice (Table 14)”, the “effect on alcohol-induced increased plasma ACP” value is recorded as “significantly (p<0.05) attenuated”, the “effect on alcohol-induced increased plasma ALT” value was “significantly (p<0.001) attenuated”, the “effect on alcohol-induced increased plasma AST” value is recorded as “significantly (p<0.05; p<0.01) attenuated” and the “effect on plasma ALP level compared with ALC group” value is given as “significantly (p<0.05) decreased”. In addition, where the note is “female mice”, the “Relative organ weight (w.r.t body weight) Kidney” value is given as 0.013 ± 0.001^, the “Relative organ weight (w.r.t body weight) Liver” value is 0.052 ± 0.011^, the ACP is reported as 5.58 ± 2.19^# IU/L and the ALP was 32.95 ± 13.06^# IU/L. Where the note is “female mice”, the “ALT(SGPT)” value is recorded as 6.72 ± 2.88^## IU/L, the “AST(SGOT)” value is 6.19 ± 1.94^# IU/L and the Total Protein was 2.75 ± 0.167 g/dL. Where the note is “male mice (Table 13)”, the “effect on alcohol-induced increased plasma ACP” value is given as “significantly (p<0.05) attenuated”, the “effect on alcohol-induced increased plasma ALT” value is on record as “significantly (p<0.05) attenuated” and the “effect on alcohol-induced increased plasma AST” value is on record as “significantly (p<0.05) attenuated”. Where the note is “male mice”, the “Relative organ weight (w.r.t body weight) Kidney” value is 0.014 ± 0.001, the “Relative organ weight (w.r.t body weight) Liver” value was 0.044 ± 0.001, the ACP is 5.36 ± 2.34^# IU/L and the ALP is on record as 20.20 ± 6.18^# IU/L. In addition, where the note is “male mice”, the “ALT(SGPT)” value was 11.93 ± 4.364^# IU/L, the “AST(SGOT)” value is given as 5.83 ± 1.75^# IU/L and the Total Protein was determined as 2.75 ± 0.167 g/dL.

For `O=c1oc2cc(O)ccc2c2ccc(O)cc12` [3,8-(OH)2-DBP, 3,8-dihydroxy-dibenzo-alpha-pyrone], the “hepatoprotective activity against alcohol-induced hepatotoxicity” value was “significant hepatoprotective activity”. Further, for the setting “female mice (Table 14)”, the “effect on alcohol-induced increased plasma ACP” value is “significantly (p<0.05) attenuated”, the “effect on alcohol-induced increased plasma ALT” value is “significantly (p<0.001) attenuated”, the “effect on alcohol-induced increased plasma AST” value is “significantly (p<0.05; p<0.01) attenuated” and the “effect on plasma ALP level compared with ALC group” value is reported as “did not show significant (p>0.05) change”. For the setting “female mice”, the “Relative organ weight (w.r.t body weight) Kidney” value amounted to 0.012 ± 0.001, the “Relative organ weight (w.r.t body weight) Liver” value was 0.048 ± 0.001, the ACP is 4.31 ± 2.84^## IU/L and the ALP was found to be 43.12 ± 5.84 IU/L. Also, where the note is “female mice”, the “ALT(SGPT)” value is 6.72 ± 0.727^## IU/L, the “AST(SGOT)” value was 3.62 ± 1.27^## IU/L and the Total Protein came to 3.229 ± 0.187 g/dL. For the setting “male mice (Table 13)”, the “effect on alcohol-induced increased plasma ACP” value is on record as “significantly (p<0.05) attenuated”, the “effect on alcohol-induced increased plasma ALT” value is on record as “significantly (p<0.05) attenuated” and the “effect on alcohol-induced increased plasma AST” value is on record as “significantly (p<0.05) attenuated”. In addition, where the note is “male mice”, the “Relative organ weight (w.r.t body weight) Kidney” value worked out at 0.016 ± 0.002, the “Relative organ weight (w.r.t body weight) Liver” value stood at 0.044 ± 0.005, the ACP was 4.29 ± 1.22^## IU/L and the ALP is 27.39 ± 6.15 ^ IU/L. Under “male mice”, the “ALT(SGPT)” value is reported as 9.98 ± 3.44^# IU/L, the “AST(SGOT)” value is reported as 4.51 ± 1.80^# IU/L and the Total Protein was 3.229 ± 0.187^ g/dl.
